Target: S. aureus (SAU) GyrB ATPase (Staphylococcus aureus, UniProt P0A0K8)
Assay: S. aureus GyrB ATPase inhibition, ammonium molybdate/malachite green phosphate detection assay
Assay type: biochemical
Settings: read-out: S. aureus (SAU) GyrB ATPase % Inhibition, compound concentration 12.5 μM
Experimental: Compounds were tested for inhibition of GyrB ATPase activity using an ammonium molybdate/malachite green-based phosphate detection assay (Lanzetta, P. A., L. J. Alvarez, P. S. Reinach, and O. A. Candia, 1979, 100: 95-97). Assays were performed in multiwell plates in 100 μl reactions containing: 50 mM Hepes buffer pH 7.5, 75 mM ammonium acetate, 8.0 mM magnesium chloride, 1.0 mM ethylenediaminetetraacetic acid, 5% glycerol, 2 mM 1,4-Dithio-DL-threitol, 400 nM bovine serum albumin, 5 μg/ml sheared salmon sperm DNA, 1.25 nM E. coli GyrA, 1.25 nM S. aureus GyrB, 500 μM ATP, and compound in dimethylsulfoxide. Reactions were quenched with 150 μl of ammonium molybdate/malachite green detection reagent containing 1.2 mM malachite green hydrochloride, 8.5 mM ammonium molybdate tetrahydrate, and 1 M hydrochloric acid. Plates were read in an absorbance plate reader at 650 nm and percent inhibition values were calculated using dimethylsulfoxide (2%)-containing reactions as 0% inhibition and novobiocin-containing (2 μM) reactions as 100% inhibition controls. Compound potency was based on IC50 measurements determined from reactions performed in the presence of 10 different compound concentrations.

S. aureus (SAU) GyrB ATPase, sequence (P0A0K8 whole entry): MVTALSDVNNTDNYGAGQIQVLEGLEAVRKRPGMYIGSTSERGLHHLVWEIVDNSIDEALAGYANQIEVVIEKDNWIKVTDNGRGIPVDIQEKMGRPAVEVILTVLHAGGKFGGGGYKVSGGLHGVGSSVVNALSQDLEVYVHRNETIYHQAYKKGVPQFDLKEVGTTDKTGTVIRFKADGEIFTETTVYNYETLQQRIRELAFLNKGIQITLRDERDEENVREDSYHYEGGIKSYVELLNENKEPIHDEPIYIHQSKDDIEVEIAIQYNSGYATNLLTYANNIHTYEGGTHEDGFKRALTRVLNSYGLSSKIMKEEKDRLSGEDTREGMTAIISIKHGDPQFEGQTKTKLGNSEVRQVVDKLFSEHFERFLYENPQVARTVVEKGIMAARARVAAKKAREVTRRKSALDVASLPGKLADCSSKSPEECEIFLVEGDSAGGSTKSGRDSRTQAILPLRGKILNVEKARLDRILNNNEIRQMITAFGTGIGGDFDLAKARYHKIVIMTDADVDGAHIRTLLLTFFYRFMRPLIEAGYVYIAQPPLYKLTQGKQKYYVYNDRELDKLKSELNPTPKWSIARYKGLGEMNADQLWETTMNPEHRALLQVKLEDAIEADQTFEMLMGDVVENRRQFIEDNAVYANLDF
S. aureus (SAU) GyrB ATPase, sequence (P0AES4 whole entry, further chain): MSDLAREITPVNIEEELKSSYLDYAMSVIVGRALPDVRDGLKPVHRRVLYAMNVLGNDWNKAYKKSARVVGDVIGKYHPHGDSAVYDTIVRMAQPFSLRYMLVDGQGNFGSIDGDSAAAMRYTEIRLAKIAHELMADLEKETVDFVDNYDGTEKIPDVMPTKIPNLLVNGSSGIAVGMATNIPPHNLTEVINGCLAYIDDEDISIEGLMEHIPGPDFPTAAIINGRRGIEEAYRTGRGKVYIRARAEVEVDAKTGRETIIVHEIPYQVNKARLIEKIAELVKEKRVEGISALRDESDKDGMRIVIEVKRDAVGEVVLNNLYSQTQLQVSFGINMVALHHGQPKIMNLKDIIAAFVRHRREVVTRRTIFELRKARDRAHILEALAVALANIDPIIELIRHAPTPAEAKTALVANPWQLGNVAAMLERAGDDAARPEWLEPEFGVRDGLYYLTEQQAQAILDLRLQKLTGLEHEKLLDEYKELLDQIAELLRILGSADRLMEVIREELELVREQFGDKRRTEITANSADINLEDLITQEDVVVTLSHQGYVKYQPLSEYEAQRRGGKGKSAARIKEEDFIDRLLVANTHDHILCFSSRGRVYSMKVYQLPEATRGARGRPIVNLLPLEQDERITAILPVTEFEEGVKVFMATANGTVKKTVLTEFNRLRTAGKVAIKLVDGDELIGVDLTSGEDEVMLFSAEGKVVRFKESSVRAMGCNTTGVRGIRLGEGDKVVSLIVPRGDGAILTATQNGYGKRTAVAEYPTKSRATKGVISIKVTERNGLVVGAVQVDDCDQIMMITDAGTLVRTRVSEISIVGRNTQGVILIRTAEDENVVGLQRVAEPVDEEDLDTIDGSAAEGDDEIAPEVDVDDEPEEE

CCNC(=O)Nc1ccc(-c2nc(C(=O)N[C@@H](C)COC)c(C(=O)O)s2)cn1 [Example 92, 2-(6-{[(ethylamino)carbonyl]amino}pyridin-3-yl)-4-({[(1S)-2-methoxy-1-methylethyl]amino}carbonyl)-1,3-thiazole-5-carboxylic acid]
inhibition at 12.5 µM: 101%

CCNC(=O)Nc1ccc(-c2nc(-c3nccn3C)c(C(=O)O)s2)cn1 [Example 93, 2-(6-{[(Ethylamino)carbonyl]amino}pyridin-3-yl)-4-(1-methyl-1H-imidazol-2-yl)-1,3-thiazole-5-carboxylic acid]
inhibition at 12.5 µM: 99.1%

CCNC(=O)Nc1ccc(-c2nc(C(=O)NC(C)(C)C)c(C(=O)O)s2)cn1 [Example 94, 4-[(tert-Butylamino)carbonyl]-2-(6-{[(ethylamino)carbonyl]amino}pyridin-3-yl)-1,3-thiazole-5-carboxylic acid]
inhibition at 12.5 µM: 98.9%

CCNC(=O)Nc1cc(-c2ccccc2)c(-c2cncc(C(=O)O)c2)cn1 [Example 95, 6′-{[(Ethylamino)carbonyl]amino}-4′-phenyl-3,3′-bipyridine-5-carboxylic acid]
inhibition at 12.5 µM: 100%

CCNC(=O)Nc1cc(-c2ccccc2)c(-c2cccc(C(=O)O)c2)cn1 [Example 96, 3-(6-{[(Ethylamino)carbonyl]amino}-4-phenylpyridin-3-yl)benzoic acid]
inhibition at 12.5 µM: 95.4%

CCNC(=O)Nc1cc(-c2ccccc2)c(-c2ncc(C(=O)O)s2)cn1 [Example 97, 2-(6-{[(Ethylamino)carbonyl]amino}-4-phenylpyridin-3-yl)-1,3-thiazole-5-carboxylic acid]
inhibition at 12.5 µM: 101%

CCCCNC(=O)c1nc(-c2cnc(NC(=O)NCC)cc2-c2ccccc2)sc1C(=O)O [Example 98, 4-[(Butylamino)carbonyl]-2-(6-{[(ethylamino)carbonyl]amino}-4-phenylpyridin-3-yl)-1,3-thiazole-5-carboxylic acid]
inhibition at 12.5 µM: 99.3%

CCNC(=O)Nc1cc(-c2nc(CC)cs2)c(-c2cncc(C(=O)O)c2)cn1 [Example 99, 6′-{[(Ethylamino)carbonyl]amino}-4′-(4-ethyl-1,3-thiazol-2-yl)-3,3′-bipyridine-5-carboxylic acid]
inhibition at 12.5 µM: 102%

CCNC(=O)Nc1cc(-c2nc(CC)cs2)c(-c2cccc(C(=O)O)c2)cn1 [Example 100, 3-[6-{[(Ethylamino)carbonyl]amino}-4-(4-ethyl-1,3-thiazol-2-yl)pyridin-3-yl]benzoic acid]
inhibition at 12.5 µM: 99.7%

CCNC(=O)Nc1cc(-c2nc(C(F)(F)F)cs2)c(-c2cncc(C(=O)O)c2)cn1 [Example 101, 6′-{[(Ethylamino)carbonyl]amino}-4′-[4-(trifluoromethyl)-1,3-thiazol-2-yl]-3,3′-bipyridine-5-carboxylic acid]
inhibition at 12.5 µM: 98.3%

CCNC(=O)Nc1cc(-c2nc(C(F)(F)F)cs2)c(-c2ncc(C(=O)O)s2)cn1 [Example 102, 2-{6-{[(Ethylamino)carbonyl]amino}-4-[4-(trifluoromethyl)-1,3-thiazol-2-yl]pyridin-3-yl}-1,3-thiazole-5-carboxylic acid]
inhibition at 12.5 µM: 98.2%

CCNC(=O)Nc1cc(-c2cccnc2)c(-c2cncc(C(=O)O)c2)cn1 [Example 103, 6′-{[(Ethylamino)carbonyl]amino}-3,3′:4′,3″-terpyridine-5-carboxylic acid]
inhibition at 12.5 µM: 96%

CCNC(=O)Nc1cc(-c2ccc(F)nc2)c(-c2cncc(C(=O)O)c2)cn1 [Example 104]
inhibition at 12.5 µM: 89.9%

CC(C)NC(=O)Nc1cc(-c2nc(C(F)(F)F)cs2)c(-c2cncc(C(=O)O)c2)cn1 [Example 105, 6′-{[(Isopropylamino)arbonyl]amino}-4′-[4-(trifluoromethyl)-1,3-thiazol-2-yl]-3,3′-bipyridine-5-carboxylic acid]
inhibition at 12.5 µM: 94.8%

CCC(C)NC(=O)Nc1cc(-c2nc(C(F)(F)F)cs2)c(-c2cncc(C(=O)O)c2)cn1 (centres unmarked) [Example 106, 6′-{[(Sec-butylamino)carbonyl]amino}-4′-[4-(trifluoromethyl)-1,3-thiazol-2-yl]-3,3′-bipyridine-5-carboxylic acid]
inhibition at 12.5 µM: 93.1%

CCNC(=O)Nc1cc(-c2nc(CC)cs2)c(-c2cncc(C(=O)NC)c2)cn1 [Example 107, 6′-{[(Ethylamino)carbonyl]amino}-4′-(4-ethyl-1,3-thiazol-2-yl)-N-methyl-3,3′-bipyridine-5-carboxamide]
inhibition at 12.5 µM: 84%

CCCCNC(=O)c1nc(-c2ccc(NC(=O)NCC)nc2)sc1C(=O)NC [Example 108, N^4-Butyl-2-(6-{[(ethylamino)carbonyl]amino}pyridin-3-yl)-N^5-methyl-1,3-thiazole-4,5-dicarboxamide]
inhibition at 12.5 µM: 100%

CCCCNC(=O)c1nc(-c2ccc(NC(=O)NCC)nc2)sc1C(=O)N(C)C [Example 109, N^4-Butyl-2-(6-{[(ethylamino)carbonyl]amino}pyridin-3-yl)-N^5,N^5-dimethyl-1,3-thiazole-4,5-dicarboxamide]
inhibition at 12.5 µM: 99.5%

CCNC(=O)Nc1ccc(-c2nc(C(=O)NC(C)(C)C)c(C(=O)N(C)C)s2)cn1 [Example 110, N^4-(tert-Butyl)-2-(6-{[(ethylamino)carbonyl]amino}pyridin-3-yl)-N^5,N^5-dimethyl-1,3-thiazole-4,5-dicarboxamide]
inhibition at 12.5 µM: 101%

CCNC(=O)Nc1ccc(-c2nc(C(=O)NC(C)(C)C)c(C(N)=O)s2)cn1 [Example 111, N^4-(tert-Butyl)-2-(6-{[(ethylamino)carbonyl]amino}pyridin-3-yl)-1,3-thiazole-4,5-dicarboxamide]
inhibition at 12.5 µM: 101%

CCNC(=O)Nc1ccc(-c2nc(-c3nccn3C)c(C(=O)N(C)C)s2)cn1 [Example 112, 2-(6-{[(Ethylamino)carbonyl]amino}pyridin-3-yl)-N,N-dimethyl-4-(1-methyl-1H-imidazol-2-yl)-1,3-thiazole-5-carboxamide]
inhibition at 12.5 µM: 99.9%

CCNC(=O)Nc1ccc(-c2nc(-c3ncnn3C)c(C(=O)N(C)C)s2)cn1 [Example 113, 2-(6-{[(Ethylamino)carbonyl]amino}pyridin-3-yl)-N,N-dimethyl-4-(1-methyl-1H-1,2,4-triazol-5-yl)-1,3-thiazole-5-carboxamide]
inhibition at 12.5 µM: 102%

CCNC(=O)Nc1cc(-c2ccccc2)c(-c2cncc(C(N)=O)c2)cn1 [Example 114, 6′-{[(Ethylamino)carbonyl]amino}-4′-phenyl-3,3′-bipyridine-5-carboxamide]
inhibition at 12.5 µM: 105%

CCNC(=O)Nc1ccc(-c2nc(C(=O)NC)c(C(N)=O)s2)cn1 [Example 115, 2-(6-{[(Ethylamino)carbonyl]amino}pyridin-3-yl)-N^4-methyl-1,3-thiazole-4,5-dicarboxamide]
inhibition at 12.5 µM: 99.2%

CCNC(=O)Nc1ccc(-c2nc(C(=O)NCCOC)c(C(N)=O)s2)cn1 [Example 116, 2-(6-{[(Ethylamino)carbonyl]amino}pyridin-3-yl)-N^4-(2-methoxyethyl)-1,3-thiazole-4,5-dicarboxamide]
inhibition at 12.5 µM: 98.7%

CCNC(=O)Nc1ccc(-c2nc(C(=O)N[C@@H](C)COC)c(C(N)=O)s2)cn1 [Example 117, 2-(6-{[(Ethylamino)carbonyl]amino}pyridin-3-yl)-N^4-[(1S)-2-methoxy-1-methylethyl]-1,3-thiazole-4,5-dicarboxamide]
inhibition at 12.5 µM: 101%
